Drawing on patent US6544985B2, “Dihydro-benzo [b][1,4]diazepin-2-one derivatives” (Hoffman-La Roche Inc., priority 2001, dated 2003), this text covers melting point for 31 compounds.

With `CC(C)CNc1cc2c(cc1C(F)(F)F)NC(=O)CC(c1cccc(-n3ccnn3)c1)=N2` [Example 180, 7-(Isobutyl-amino)-4-(3-[1,2,3]triazol-1-yl-phenyl)-8-trifluoromethyl-1,3-dihydro-benzo[b][1,4]diazepin-2-one], the melting point (usually the temperature of the solid-liquid transition) is 212 °C. Compound `CC(C)CNc1cc2c(cc1Cl)NC(=O)CC(c1cccc(-n3cncn3)c1)=N2` [Example 181, 8-Chloro-7-(isobutyl-amino)-4-(3-[1,2,4]triazol-1-yl-phenyl)-1,3-dihydro-benzo[b][1,4]diazepin-2-one] came in with a melting point of 222 °C. With `CC(C)CNc1cc2c(cc1C(F)(F)F)NC(=O)CC(c1cccc(-n3cncn3)c1)=N2` [Example 182, 7-(Isobutyl-amino)-4-(3-[1,2,4]triazol-1-yl-phenyl)-8-trifluoromethyl-1,3-dihydro-benzo[b][1,4]diazepin-2-one], the melting point amounted to 191 °C. Compound `CCN(C)c1cc2c(cc1Cl)NC(=O)CC(c1cccc(-c3nc(CO)cs3)c1)=N2` [Example 183, 8-Chloro-7-(ethyl-methyl-amino)-4-[3-(4-hydroxymethyl-thiazol-2-yl)-phenyl]-1,3-dihydro-benzo[b][1,4]diazepin-2-one] yielded a melting point of 136 to 137 °C. In the case of `CCCN(C)c1cc2c(cc1Cl)NC(=O)CC(c1cccc(-c3nc(CO)cs3)c1)=N2` [Example 184, 8-Chloro-4-[3-(4-hydroxymethyl-thiazol-2-yl)-phenyl]-7-(methyl-propyl-amino)-1,3-dihydro-benzo[b][1,4]diazepin-2-one] it was 211 to 213 °C; in that of `CC(C)N(C)c1cc2c(cc1Cl)NC(=O)CC(c1cccc(-c3nc(CO)cs3)c1)=N2` [Example 185, 8-Chloro-4-[3-(4-hydroxymethyl-thiazol-2-yl)-phenyl]-7-(isopropyl-methyl-amino)-1,3-dihydro-benzo[b][1,4]diazepin-2-one], 193 to 195 °C. In the case of `CCN(C)c1cc2c(cc1Cl)NC(=O)CC(c1cccc(-c3nc(CO)co3)c1)=N2` [Example 187, 8-Chloro-7-(ethyl-methyl-amino)-4-[3-(4-hydroxymethyl-oxazol-2-yl)-phenyl]-1,3-dihydro-benzo[b][1,4]diazepin-2-one] it was 165 to 166 °C; in that of `CCCN(C)c1cc2c(cc1Cl)NC(=O)CC(c1cccc(-c3nc(CO)co3)c1)=N2` [Example 188, 8-Chloro-4-[3-(4-hydroxymethyl-oxazol-2-yl)-phenyl]-7-(methyl-propyl-amino)-1,3-dihydro-benzo[b][1,4]diazepin-2-one], 166 to 167 °C. To `CC(C)N(C)c1cc2c(cc1Cl)NC(=O)CC(c1cccc(-c3nc(CO)co3)c1)=N2` [Example 189, 8-Chloro-4-[3-(4-hydroxymethyl-oxazol-2-yl)-phenyl]-7-(isopropyl-methyl-amino)-1,3-dihydro-benzo[b][1,4]diazepin-2-one] belongs 143 to 145 °C. Compound `CC(C)CN(C)c1cc2c(cc1Cl)NC(=O)CC(c1cccc(-c3nc(CO)co3)c1)=N2` [Example 190, 8-Chloro-4-[3-(4-hydroxymethyl-oxazol-2-yl)-phenyl]-7-(isobutyl-methyl-amino)-1,3-dihydro-benzo[b][1,4]diazepin-2-one] returned a melting point of 166 to 167 °C. To `CNCc1csc(-c2cccc(C3=Nc4cc(N(C)C)c(Cl)cc4NC(=O)C3)c2)n1` [Example 191, 8-Chloro-7-dimethylamino-4-[3-(4-methylaminomethyl-thiazol-2-yl)-phenyl]-1,3-dihydro-benzo[b][1,4]diazepin-2-one] belongs 129 to 130 °C; to `CN(C)c1cc2c(cc1Cl)NC(=O)CC(c1cccc(-c3nc(CN4CCOCC4)cs3)c1)=N2` [Example 192, 8-Chloro-7-dimethylamino-4-[3-(4-morpholin-4-ylmethyl-thiazol-2-yl)-phenyl]-1,3-dihydro-benzo[b][1,4]diazepin-2-one], 138 to 143 °C; to `CN(C)c1cc2c(cc1Cl)NC(=O)CC(c1cccc(-c3csc(CO)n3)c1)=N2` [Example 193, 8-Chloro-7-dimethylamino-4-[3-(2-hydroxymethyl-thiazol-4-yl)-phenyl]-1,3-dihydro-benzo[b][1,4]diazepin-2-one], 176 to 178 °C.

Take `CN(C)c1cc2c(cc1Cl)NC(=O)CC(c1cccc(-c3csc(N)n3)c1)=N2` [Example 194, 4-[3-(2-Amino-thiazol-4-yl)-phenyl]-8-chloro-7-dimethylamino-1,3-dihydro-benzo[b][1,4]diazepin-2-one]: the melting point was 247 to 248 °C. In the case of `CN(C)c1cc2c(cc1Cl)NC(=O)CC(c1cccc(-c3csc(NC(=N)N)n3)c1)=N2` [Example 196, N-{4-[3-(7-Chloro-8-dimethylamino-4-oxo-4,5-dihydro-3H-benzo[b][1,4]diazepin-2-yl)-phenyl]-thiazol-2-yl}-guanidine] it was 221 °C (dec.). To `CN(C)c1cc2c(cc1Cl)NC(=O)CC(c1cccc(-c3csc(Nc4ccncc4)n3)c1)=N2` [Example 197, 8-Chloro-7-dimethylamino-4-{3-[2-(pyridin-4-ylamino)-thiazol-4-yl]-phenyl}-1,3-dihydro-benzo[b][1,4]diazepin-2-one] belongs 231 to 234 °C; to `CCCN(C)c1cc2c(cc1Cl)NC(=O)CC(c1cccc(-c3coc(C)n3)c1)=N2` [Example 198, 8-Chloro-4-[3-(2-methyl-oxazol-4-yl)-phenyl]-7-(methyl-propyl-amino)-1,3-dihydro-benzo[b][1,4]diazepin-2-one], 163 to 164 °C.

Take `CCCN(C)c1cc2c(cc1C)NC(=O)CC(c1cccc(-c3nc(CO)cs3)c1)=N2` [Example 199, 4-[3-(4-Hydroxymethyl-thiazol-2-yl)-phenyl]-8-methyl-7-(methyl-propyl-amino)-1,3-dihydro-benzo[b][1,4]diazepin-2-one]: the melting point lay in the range of 222 to 224 °C.

`CCCN(C)c1cc2c(cc1C)NC(=O)CC(c1cccc(-c3nc(CO)co3)c1)=N2` [Example 200, 4-[3-(4-Hydroxymethyl-oxazol-2-yl)-phenyl]-8-methyl-7-(methyl-propyl-amino)-1,3-dihydro-benzo[b][1,4]diazepin-2-one] yielded a melting point of 200 to 202 °C. To `CN(C)c1cc2c(cc1C(F)(F)F)NC(=O)CC(c1cccc(-c3nc(CO)cs3)c1)=N2` [Example 201, 7-Dimethylamino-4-[3-(4-hydroxymethyl-thiazol-2-yl)-phenyl]-8-trifluoromethyl-1,3-dihydro-benzo[b][1,4]diazepin-2-one] belongs 198 to 199 °C; to `CN(C)c1cc2c(cc1C(F)(F)F)NC(=O)CC(c1cccc(-c3nc(CO)co3)c1)=N2` [Example 202, 7-Dimethylamino-4-[3-(4-hydroxymethyl-oxazol-2-yl)-phenyl]-8-trifluoromethyl-1,3-dihydro-benzo[b][1,4]diazepin-2-one], 197 to 198 °C; to `CCCN(C)c1cc2c(cc1C(F)(F)F)NC(=O)CC(c1cccc(-c3nc(CO)cs3)c1)=N2` [Example 203, 4-[3-(4-Hydroxymethyl-thiazol-2-yl)-phenyl]-7-(methyl-propyl-amino)-8-trifluoromethyl-1,3-dihydro-benzo[b][1,4]diazepin-2-one], 177 to 180 °C. To `CN(C)c1cc2c(cc1C(F)(F)F)NC(=O)CC(c1cccc(-c3nnc(CCO)s3)c1)=N2` [Example 205, 7-Dimethylamino-4-{3-[5-(2-hydroxy-ethyl)-[1,3,4]thiadiazol-2-yl]-phenyl}-8-trifluoromethyl-1,3-dihydro-benzo[b][1,4]diazepin-2-one] belongs 234 to 237 °C; to `CN(C)c1cc2c(cc1C(F)(F)F)NC(=O)CC(c1cccc(-c3nnc(CCO)o3)c1)=N2` [Example 207, 7-Dimethylamino-4-{3-[5-(2-hydroxy-ethyl)-[1,3,4]oxadiazol-2-yl]-phenyl}-8-trifluoromethyl-1,3-dihydro-benzo[b][1,4]diazepin-2-one], 237 °C (dec.); to `CN(C)c1cc2c(cc1C(F)(F)F)NC(=O)CC(c1cccc(-c3cocn3)c1)=N2` [Example 208, 7-Dimethylamino-4-(3-oxazol-4-yl-phenyl)-8-trifluoromethyl-1,3-dihydro-benzo[b][1,4]diazepin-2-one], 218 to 219 °C. In the case of `CN(C)c1cc2c(cc1C(F)(F)F)NC(=O)CC(c1cccc(-c3cscn3)c1)=N2` [Example 209, 7-Dimethylamino-4-(3-thiazol-4-yl-phenyl)-8-trifluoromethyl-1,3-dihydro-benzo[b][1,4]diazepin-2-one] it was 200 °C (dec.). On to `Cc1nc(-c2cccc(C3=Nc4cc(N(C)C)c(C(F)(F)F)cc4NC(=O)C3)c2)co1` [Example 210, 7-Dimethylamino-4-[3-(2-methyl-oxazol-4-yl)-phenyl]-8-trifluoromethyl-1,3-dihydro-benzo[b][1,4]diazepin-2-one], for which the melting point lay in the range of 192 to 193 °C. To `Cc1ocnc1-c1cccc(C2=Nc3cc(N(C)C)c(C(F)(F)F)cc3NC(=O)C2)c1` [Example 211, 7-Dimethylamino-4-[3-(5-methyl-oxazol-4-yl)-phenyl]-8-trifluoromethyl-1,3-dihydro-benzo[b][1,4]diazepin-2-one] belongs 238 to 239 °C; to `Cc1scnc1-c1cccc(C2=Nc3cc(N(C)C)c(C(F)(F)F)cc3NC(=O)C2)c1` [Example 213, 7-Dimethylamino-4-[3-(5-methyl-thiazol-4-yl)-phenyl]-8-trifluoromethyl-1,3-dihydro-benzo[b][1,4]diazepin-2-one], 214 to 215 °C. In the case of `Cc1nc(-c2cccc(C3=Nc4cc(N(C)C)c(C(F)(F)F)cc4NC(=O)C3)c2)c(C)s1` [Example 214, 7-Dimethylamino-4-[3-(2,5-dimethyl-thiazol-4-yl)-phenyl]-8-trifluoromethyl-1,3-dihydro-benzo[b][1,4]diazepin-2-one] it was 208 to 209 °C; in that of `Cc1sc(CO)nc1-c1cccc(C2=Nc3cc(N(C)C)c(C(F)(F)F)cc3NC(=O)C2)c1` [Example 216, 7-Dimethylamino-4-[3-(2-hydroxymethyl-5-methyl-thiazol-4-yl)-phenyl]-8-trifluoromethyl-1,3-dihydro-benzo[b][1,4]diazepin-2-one], 190 to 193 °C.
